In PMC12006963, “Application of Deuterium in an M1 Positive Allosteric Modulator Back-Up Program: The Discovery of VU6045422” (ACS Chemical Neuroscience, 2025):
Each block holds one molecule with its values, some of them ahead of it.

What was measured:
M1 = biological target: T1, M1 (Homo sapiens, UniProt P11229); assay: M1 PAM activity of oxidative metabolites; assay type: cell-based; conditions: in words
T1 construct: expressed in transfected cells
T1 sequence (P11229 1-460): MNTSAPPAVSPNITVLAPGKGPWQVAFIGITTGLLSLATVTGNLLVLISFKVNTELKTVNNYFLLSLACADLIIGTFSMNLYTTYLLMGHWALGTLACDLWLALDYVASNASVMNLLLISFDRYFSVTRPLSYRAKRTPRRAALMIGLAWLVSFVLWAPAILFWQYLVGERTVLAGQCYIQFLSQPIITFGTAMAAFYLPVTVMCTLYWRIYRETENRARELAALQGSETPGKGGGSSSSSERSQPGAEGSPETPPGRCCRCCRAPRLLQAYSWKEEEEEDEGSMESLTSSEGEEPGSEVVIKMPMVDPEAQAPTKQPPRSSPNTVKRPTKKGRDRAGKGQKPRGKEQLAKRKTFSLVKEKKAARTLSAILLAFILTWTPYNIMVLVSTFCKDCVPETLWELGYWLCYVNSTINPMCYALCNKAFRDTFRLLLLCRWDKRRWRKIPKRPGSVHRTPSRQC
Protocol: Procedures for Biological Experiments
Calcium mobilization assays:
All functional cell-based assays were performed in stable Chinese Hamster Ovary (CHO) cell lines constitutively expressing human M5 or human M1 receptors. For full muscarinic selectivity, CHO cells expressing human M3, human M2 plus Gqi5 or human M4 plus Gqi5 were used. Cells were plated at 15,000 cells per 20 µL per well in black 384-well, TC-treated, clear-bottomed plates (Greiner) in Ham’s F12 medium supplemented with 10% FBS and 20 mM HEPES. Cells were incubated overnight at 37 °C under 5% CO2. The following day, the medium was removed and replaced with 1.2 µM Fluo-4 AM (Invitrogen) in assay buffer (Hank’s Balanced Salt Solution supplemented with 20 mM HEPES and 2.5 mM Probenecid, pH 7.4) and the cells were incubated for 50 minutes at 37 °C under 5% CO2. Dye was then removed and replaced with 20 µL of fresh assay buffer. Test compounds at a 10 mM concentration in DMSO were serially diluted in DMSO (either 1:3 or 1:5 dilution) to create a 10-point concentration series. The DMSO solutions were then diluted in assay buffer resulting in compound solutions at 2-times the final assay concentration with the highest assay concentration of 30 µM. The compound plate, cell plate, and plates containing EC20 and EC80 acetylcholine concentrations were placed in a Hamamatsu FDSS 6000 or 7000 kinetic imaging plate reader equipped to measure Ex480/Em540 fluorescence. Data were collected at 1 frame per second. After 2 seconds of collecting baseline fluorescence, 20 µL of the compound solutions were added to the cell plate. This was followed by the addition of an EC20 concentration of acetylcholine at 142 seconds. […] The fluorescence signal was collected for a total of 300 seconds. […] Data were imported and analyzed in Dotmatics Informatics software. by normalizing all data in the individual kinetic traces to the initial fluorescence read. The magnitude of each agonist addition was then determined and normalized to the average maximum response. […] The IC50 determined using the EC80 of acetylcholine is the value reported. […]

[1] = Hepatocyte metabolite identification (rat); assay type: in vitro ADME; conditions: rat hepatocytes; 2 from 1, 4 from 3, 6 from 5
Protocol: (§1) Prior to full characterization of deuterated analogues 3 and 5, they were incubated in rat, dog, monkey, and human hepatocytes, along with 1, to determine the amount of parent remaining, as well as the degree of undesired oxidative metabolites 2, 4, and 6 (Figure 2). […] For the gem-dideutero congener 3, metabolic stability was improved in vitro. […] Thus, in hepatocytes in vitro, the kinetic isotope effect engendered greater metabolic stability of the labile hot spot on the lactam. It remained to be seen if this effect would translate in vivo, but we first had to assess the impact of the deuterated analogues on molecular pharmacology, in vitro DMPK, standard low-dose in vivo DMPK and, if warranted, in vivo efficacy in a rat novel object recognition (NOR) behavioral assay.

[2] = Hepatocyte metabolite identification (dog); assay type: in vitro ADME; conditions: dog hepatocytes; 2 from 1, 4 from 3, 6 from 5
Protocol: as §1

[3] = Hepatocyte metabolite identification (monkey); assay type: in vitro ADME; conditions: monkey hepatocytes; for % Total Peak Area, oxidative metabolite formed: 2 from 1, 4 from 3, 6 from 5
Protocol: as §1

[4] = Hepatocyte metabolite identification (human); assay type: in vitro ADME; conditions: human hepatocytes; for % Total Peak Area, oxidative metabolite formed: 2 from 1, 4 from 3, 6 from 5
Protocol: as §1

[5] = set-up: method as in doi:10.1002/alz.045339, doi:10.1016/j.jagp.2021.01.038; conditions: humans, phase I, upon increasing dose of 1; cited from earlier work
[6] = Dog MTD with pharmacokinetics study; assay type: in vivo; conditions: dog MTD; for ratio AUC (%) / ratio Cmax (%): 6 relative to 5; for AUC / Cmax: plasma
Text: (§2) To this end, we prepared a 200 g lot of PAM 5 and performed, in parallel, a dog maximum tolerated dose (MTD) with a pharmacokinetics study and a 14-day rat exploratory toxicology and toxicokinetic study, quantifying plasma Cmax and AUC for both parent 5 and metabolite 6. […] Moreover, while exposure increased with dose, it was nonlinear. […] The series was terminated based on (1) poor and less than dose-proportional increases in systemic exposure, (2) lack of a kinetic isotope effect to diminish production of 6 in dogs and rats, and (3) strong likelihood of even higher concentrations of 6 to be present in man.

[7] = Rat 14-day exploratory toxicology and toxicokinetic study; assay type: in vivo; conditions: rat 14-day study; for ratio AUC (%) / ratio Cmax (%): 6 relative to 5
Text: as §2

[8] = day 14, 300 mg/kg PO of 5, plasma
[9] = day 14, 750 mg/kg PO of 5, plasma
[10] = day 14, 1500 mg/kg PO of 5, plasma

M1 PAM activity (M1): inactive
% Total Peak Area, oxidative metabolite formed [1]: 23.7%
% Total Peak Area, oxidative metabolite formed [2]: 28.3%
% Total Peak Area, oxidative metabolite formed [3]: 74.3%
% Total Peak Area, oxidative metabolite formed [4]: 34.9%
Structure (SMILES): Cn1cc2c(-c3cc(F)c(CN4C(=O)c5cccnc5C4O)c(F)c3)cccc2n1 (stereo not shown) [compound 2]
share of the total drug-related area under the curve (AUC) [5]: > 50%

M1 PAM activity (M1): inactive
% Total Peak Area, oxidative metabolite formed [1]: 7.8%
% Total Peak Area, oxidative metabolite formed [2]: 5.5%
reduction in oxidative metabolite production versus 2 from 1 [3]: > 50%
% Total Peak Area, oxidative metabolite formed [3]: 30.3%
reduction in oxidative metabolite production versus 2 from 1 [4]: 50%
% Total Peak Area, oxidative metabolite formed [4]: 15.2%
Structure (SMILES): [2H]C1(O)c2ncccc2C(=O)N1Cc1c(F)cc(-c2cccc3nn(C)cc23)cc1F (stereo not shown) [compound 4]

Structure (SMILES): [2H]C1(O)c2ncccc2C(=O)N1Cc1c(F)cc(-c2cccc3nn(C([2H])([2H])[2H])cc23)cc1F (stereo not shown) [compound 6]
M1 PAM activity (M1): inactive
% Total Peak Area, oxidative metabolite formed [1]: 8.1%
% Total Peak Area, oxidative metabolite formed [2]: 4.1%
% Total Peak Area, oxidative metabolite formed [3]: 21%
% Total Peak Area, oxidative metabolite formed ([3]; listed as VU6045587): 21.0%
% Total Peak Area, oxidative metabolite formed [4]: 4.9%
ratio AUC (%) ([6]; 30 mg/kg PO of 5): 18%
ratio Cmax (%) ([6]; 30 mg/kg PO of 5): 19%
AUC ([6]; 30 mg/kg PO of 5): 6240 ng·h/mL
Cmax ([6]; 30 mg/kg PO of 5): 455 ng/mL
ratio AUC (%) ([6]; 300 mg/kg PO of 5): 21%
ratio Cmax (%) ([6]; 300 mg/kg PO of 5): 23%
AUC ([6]; 300 mg/kg PO of 5): 14100 ng·h/mL
Cmax ([6]; 300 mg/kg PO of 5): 818 ng/mL
ratio AUC (%) ([6]; 1000 mg/kg PO of 5): 19%
ratio Cmax (%) ([6]; 1000 mg/kg PO of 5): 17%
AUC ([6]; 1000 mg/kg PO of 5): 19200 ng·h/mL
Cmax ([6]; 1000 mg/kg PO of 5): 972 ng/mL
ratio AUC (%) ([7]; day 14, 300 mg/kg PO of 5): 28%
ratio Cmax (%) ([7]; day 14, 300 mg/kg PO of 5): 30%
AUC at 14 days [7, 8]: 89500 ng·h/mL
Cmax at 14 days [7, 8]: 6740 ng/mL
ratio AUC (%) ([7]; day 14, 750 mg/kg PO of 5): 23%
ratio Cmax (%) ([7]; day 14, 750 mg/kg PO of 5): 23%
AUC at 14 days [7, 9]: 125000 ng·h/mL
Cmax at 14 days [7, 9]: 7340 ng/mL
ratio AUC (%) ([7]; day 14, 1500 mg/kg PO of 5): 28%
ratio Cmax (%) ([7]; day 14, 1500 mg/kg PO of 5): 32%
AUC at 14 day [7, 10]: 143000 ng·h/mL
Cmax at 14 days [7, 10]: 9890 ng/mL
